Key:
[1] = system: antibodies in sera from SARS patients (sera 1a, 1b, 2, 6, 37, 62, London, SARS-yellow, SARS-green); type: binding, human; design: Binding of serum 6 to linear peptides of protein X1 of SARS-CoV Urbani / Binding of serum 37 to linear peptides of protein X1 of SARS-CoV Urbani / Binding of serum 6 to looped/cyclic peptide (PEPSCAN-ELISA) / Binding of serum 37 to looped/cyclic peptide (PEPSCAN-ELISA) / Binding of serum 37 to looped/cyclic peptides of protein X1 of SARS-CoV Urbani / Binding of serum 6 to linear peptides of protein X2 / Binding of serum 37 to linear peptides of protein X2 / Binding of serum 37 to looped/cyclic peptides of protein X2 of SARS-CoV Urbani / Binding of serum 6 to linear peptides of protein M of SARS-CoV Urbani / Binding of serum 37 to linear peptides of protein M of SARS-CoV Urbani / Binding of serum 6 to looped/cyclic peptides of protein M of SARS-CoV Urbani / Binding of serum 37 to looped/cyclic peptides of protein M of SARS-CoV Urbani / Binding of serum 6 to linear peptides of protein X3 of SARS-CoV Urbani / Binding of serum 37 to linear peptides of protein X3 of SARS-CoV Urbani / Binding of serum 37 to looped/cyclic peptides of protein X3 of SARS-CoV Urbani / Binding of serum 6 to linear peptides of protein X4 of SARS-CoV Urbani / Binding of serum 37 to linear peptides of protein X4 of SARS-CoV Urbani / Binding of serum 37 to looped/cyclic peptides of protein X4 of SARS-CoV Urbani / Binding of serum 6 to linear peptides of protein X5 of SARS-CoV Urbani / Binding of serum 37 to linear peptides of protein X5 of SARS-CoV Urbani / Binding of serum 37 to looped/cyclic peptides of protein X5 of SARS-CoV Urbani / Binding of serum 6 to linear peptides of protein N of SARS-CoV Urbani / Binding of serum 37 to linear peptides of protein N of SARS-CoV Urbani / Binding of serum 6 to linear peptide (PEPSCAN-ELISA) / Binding of serum 1a to looped/cyclic peptides of protein N of SARS-CoV Urbani / Binding of serum 1b to looped/cyclic peptides of protein N of SARS-CoV Urbani / Binding of serum 2 to looped/cyclic peptides of protein N of SARS-CoV Urbani / Binding of serum 6 to looped/cyclic peptides of protein N of SARS-CoV Urbani / Binding of serum 37 to looped/cyclic peptides of protein N of SARS-CoV Urbani / Binding of serum 62 to looped/cyclic peptides of protein N of SARS-CoV Urbani / Binding of serum London to looped/cyclic peptides of protein N of SARS-CoV Urbani / Binding of serum SARS-green to looped/cyclic peptides of protein N of SARS-CoV Urbani: unit not given here
[2] = system: rabbit serum obtained by immunizing a rabbit with the SARS-CoV strain Frankfurt 1; type: binding; design: Binding of a rabbit serum to linear peptides / Binding of a rabbit serum to looped peptides / Rabbit serum linear peptides / Rabbit serum looped peptides / Binding of a rabbit serum to linear peptides of protein N of SARS-CoV Urbani (Rabbit serum linear peptides) / Binding of a rabbit serum to looped/cyclic peptides of protein N of SARS-CoV Urbani (Rabbit serum looped peptides): unit not given here
[3] = system: control sera (pooled serum of ten healthy LUMC hospital workers; commercial negative donor pooled serum from the Dutch bloodbank); type: binding, human; design: Binding of Control serum LUMC to linear peptides / Binding of Control serum Blood-bank to linear peptides / Binding of Control serum LUMC to looped peptides / Binding of Control Serum Blood-Bank to Looped peptides / Binding of Control serum LUMC to linear peptides of the protein M of SARS-CoV Urbani / Binding of Control serum Blood-bank to linear peptides of the protein M of SARS-CoV Urbani / Binding of Control serum LUMC to looped peptides of the protein M of SARS-CoV Urbani / Binding of Control Serum Blood-Bank to Looped peptides of the protein M of SARS-CoV Urbani: unit not given here

AFQHQNSKKTTKLVV
Binding of serum 1a to linear peptides of protein X2 [1]: 0.6
Binding of serum 1a to looped/cyclic peptides of protein X2 of SARS-CoV Urbani [1]: 0.5
Binding of serum 1b to linear peptides of protein X2 [1]: 0.5
Binding of serum 1b to looped/cyclic peptides of protein X2 of SARS-CoV Urbani [1]: 0.5
Binding of serum 2 to linear peptides of protein X2 [1]: 0.6
Binding of serum 2 to looped/cyclic peptides of protein X2 of SARS-CoV Urbani [1]: 0.4
Binding of serum 6 to linear peptides of protein X2 [1]: 0.9
Binding of serum 6 to looped/cyclic peptides of protein X2 of SARS-CoV Urbani [1]: 0.4
Binding of serum 37 to linear peptides of protein X2 [1]: 0.8
Binding of serum 37 to looped/cyclic peptides of protein X2 of SARS-CoV Urbani [1]: 0.5
Binding of serum 62 to linear peptides of protein X2 [1]: 0.4
Binding of serum 62 to looped/cyclic peptides of protein X2 of SARS-CoV Urbani [1]: 0.6
Binding of serum London to linear peptides of protein X2 [1]: 0.4
Binding of serum London to looped/cyclic peptides of protein X2 of SARS-CoV Urbani [1]: 0.2
Binding of serum SARS-green to linear peptides of protein X2 [1]: 0.2
Binding of serum SARS-green to looped/cyclic peptides of protein X2 of SARS-CoV Urbani [1]: 0.3
Binding of serum SARS-yellow to linear peptides of protein X2 [1]: 0.7
Binding of serum SARS-yellow to looped/cyclic peptides of protein X2 of SARS-CoV Urbani [1]: 0.5
Recognition of the peptide by the rabbit serum [2]: recognized
Binding of Control Serum Blood-Bank to Looped peptides [3]: 0.7
Binding of Control serum Blood-bank to linear peptides [3]: 0.6
Binding of Control serum LUMC to linear peptides [3]: 0.7
Binding of Control serum LUMC to looped peptides [3]: 0.6

AGMEAQFLYLYALIY
Binding of serum 1a to linear peptides of protein X1 of SARS-CoV Urbani [1]: 0.7
Binding of serum 1a to looped/cyclic peptide (PEPSCAN-ELISA) [1]: 0.5
Binding of serum 1b to linear peptides of protein X1 of SARS-CoV Urbani [1]: 0.6
Binding of serum 1b to looped/cyclic peptide (PEPSCAN-ELISA) [1]: 0.4
Binding of serum 2 to linear peptides of protein X1 of SARS-CoV Urbani [1]: 0.6
Binding of serum 2 to looped/cyclic peptide (PEPSCAN-ELISA) [1]: 0.4
Binding of serum 6 to linear peptides of protein X1 of SARS-CoV Urbani [1]: 0.4
Binding of serum 6 to looped/cyclic peptide (PEPSCAN-ELISA) [1]: 0.3
Binding of serum 37 to linear peptides of protein X1 of SARS-CoV Urbani [1]: 0.5
Binding of serum 37 to looped/cyclic peptide (PEPSCAN-ELISA) [1]: 0.5
Binding of serum 62 to linear peptides of protein X1 of SARS-CoV Urbani [1]: 0.4
Binding of serum 62 to looped/cyclic peptide (PEPSCAN-ELISA) [1]: 0.6
Binding of serum London to linear peptides of protein X1 of SARS-CoV Urbani [1]: 0.2
Binding of serum London to looped/cyclic peptide (PEPSCAN-ELISA) [1]: 0.2
Binding of serum SARS-green to linear peptides of protein X1 of SARS-CoV Urbani [1]: 0.1
Binding of serum SARS-green to looped/cyclic peptide (PEPSCAN-ELISA) [1]: 0.2
Binding of serum SARS-yellow to linear peptides of protein X1 of SARS-CoV Urbani [1]: 0.2
Binding of serum SARS-yellow to looped/cyclic peptide (PEPSCAN-ELISA) [1]: 0.3
Binding of a rabbit serum to linear peptides [2]: 0.1
Binding of a rabbit serum to looped peptides [2]: 0.6
Binding of Control Serum Blood-Bank to Looped peptides [3]: 0.5
Binding of Control serum Blood-bank to linear peptides [3]: 0.5
Binding of Control serum LUMC to linear peptides [3]: 0.6
Binding of Control serum LUMC to looped peptides [3]: 0.6

AIAMACIVGLMWLSY
Binding of serum 1a to linear peptides of protein M of SARS-CoV Urbani [1]: 0.7
Binding of serum 1a to looped/cyclic peptides of protein M of SARS-CoV Urbani [1]: 0.5
Binding of serum 1b to linear peptides of protein M of SARS-CoV Urbani [1]: 0.5
Binding of serum 1b to looped/cyclic peptides of protein M of SARS-CoV Urbani [1]: 0.3
Binding of serum 2 to linear peptides of protein M of SARS-CoV Urbani [1]: 0.6
Binding of serum 2 to looped/cyclic peptides of protein M of SARS-CoV Urbani [1]: 0.4
Binding of serum 6 to linear peptides of protein M of SARS-CoV Urbani [1]: 0.4
Binding of serum 6 to looped/cyclic peptides of protein M of SARS-CoV Urbani [1]: 0.6
Binding of serum 37 to linear peptides of protein M of SARS-CoV Urbani [1]: 0.7
Binding of serum 37 to looped/cyclic peptides of protein M of SARS-CoV Urbani [1]: 0.5
Binding of serum 62 to linear peptides of protein M of SARS-CoV Urbani [1]: 0.7
Binding of serum 62 to looped/cyclic peptides of protein M of SARS-CoV Urbani [1]: 0.4
Binding of serum London to linear peptides of protein M of SARS-CoV Urbani [1]: 0.4
Binding of serum London to looped/cyclic peptides of protein M of SARS-CoV Urbani [1]: 0.2
Binding of serum SARS-green to linear peptides of protein M of SARS-CoV Urbani [1]: 0.3
Binding of serum SARS-green to looped/cyclic peptides of protein M of SARS-CoV Urbani [1]: 4.4
Binding of serum SARS-yellow to linear peptides of protein M of SARS-CoV Urbani [1]: 0.1
Binding of serum SARS-yellow to looped/cyclic peptides of protein M of SARS-CoV Urbani [1]: 0.8
Rabbit serum linear peptides [2]: 0.4
Rabbit serum looped peptides [2]: 0.0
Binding of Control Serum Blood-Bank to Looped peptides of the protein M of SARS-CoV Urbani [3]: 0.6
Binding of Control serum Blood-bank to linear peptides of the protein M of SARS-CoV Urbani [3]: 0.7
Binding of Control serum LUMC to linear peptides of the protein M of SARS-CoV Urbani [3]: 0.3
Binding of Control serum LUMC to looped peptides of the protein M of SARS-CoV Urbani [3]: 0.6
